Experimental data as given in PubChem BioAssay (NCI).
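Cultured in 96-well plates, cells were exposed to test compound for 48 hours across five concentrations. At the GI50, growth is halved. Definition used: TGI = concentration required for complete inhibition of growth.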

Assays:
Experiment in all cases: NCI anticancer screen, dose series, 48 h
A498 renal = system: A498 renal
CAKI-1 renal = system: CAKI-1 renal
EKVX NSCLC = system: EKVX NSCLC
HCT-15 colon = system: HCT-15 colon
HOP-62 NSCLC = system: HOP-62 NSCLC
MALME-3M melanoma = system: MALME-3M melanoma
OVCAR-4 ovarian = system: OVCAR-4 ovarian
SF-268 CNS = system: SF-268 CNS
SF-539 CNS = system: SF-539 CNS
SK-MEL-2 melanoma = system: SK-MEL-2 melanoma

Row | SMILES | TGI (A498 renal) | TGI (CAKI-1 renal) | TGI (EKVX NSCLC) | TGI (HCT-15 colon) | TGI (HOP-62 NSCLC) | TGI (MALME-3M melanoma) | TGI (OVCAR-4 ovarian) | TGI (SF-268 CNS) | TGI (SF-539 CNS) | TGI (SK-MEL-2 melanoma) | GI50 (A498 renal) | GI50 (CAKI-1 renal) | GI50 (EKVX NSCLC) | GI50 (HCT-15 colon) | GI50 (HOP-62 NSCLC) | GI50 (MALME-3M melanoma) | GI50 (OVCAR-4 ovarian) | GI50 (SF-268 CNS) | GI50 (SF-539 CNS) | GI50 (SK-MEL-2 melanoma)
1 | Cn1c(=O)nc2n(-c3cccc(F)c3)c3ccccc3nc-2c1=O | > 100 µM | 96.9 µM | 32.5 µM | 52.3 µM | > 100 µM | 28.2 µM | 27.8 µM | > 100 µM | 66 µM | 52.6 µM | – | – | – | – | – | – | – | – | – | –
2 | OCCSCc1ccccc1 | > 100 µM | > 100 µM | > 100 µM | > 100 µM | > 100 µM | > 100 µM | > 100 µM | > 100 µM | > 100 µM | > 100 µM | – | – | – | – | – | – | – | – | – | –
3 | CCN1C(=S)N(CC)C2C1NC(=S)N2/N=C/C=C/c1ccccc1 (stereo not given) | 4.67 µM | 18.6 µM | 34.7 µM | 14.3 µM | 15.7 µM | 17.8 µM | 19.6 µM | 27.2 µM | 5.4 µM | 13.7 µM | 0.641 µM | 0.776 µM | 4.19 µM | 0.77 µM | 2.26 µM | 2.09 µM | 5.4 µM | 5.51 µM | 1.67 µM | 1.62 µM
4 | CC/C=C\C[C@H](O)C/C=C1/C(=O)C=C[C@@H]1C/C=C\CCCC(=O)N(C)C | 4.46 µM | 2.67 µM | 15.6 µM | 5.87 µM | 8.35 µM | 8.81 µM | 13.5 µM | 13.9 µM | 7.14 µM | 7.13 µM | 2.56 µM | 1.22 µM | 3.92 µM | 1.29 µM | 1.99 µM | 3.05 µM | 2.07 µM | 3.04 µM | 2.18 µM | 2.5 µM
5 | CC1(C)OC(=O)C=C([O-])O1.CC1(C)OC(=O)C=C([O-])O1.O=S(=O)([O-])c1ccc([O-])c2ncccc12.O=S(=O)([O-])c1ccc([O-])c2ncccc12.[Ti+4] | > 100 µM | > 100 µM | > 100 µM | > 100 µM | 73.1 µM | > 100 µM | > 100 µM | > 100 µM | > 100 µM | > 100 µM | > 100 µM | > 100 µM | > 100 µM | 99.7 µM | 26.3 µM | > 100 µM | > 100 µM | 52 µM | 78.5 µM | > 100 µM
6 | O=c1nc(Nc2cccc(Cl)c2)oc2cc(Cl)oc(=O)c12 | 27.3 µM | 21.5 µM | 39.8 µM | 28.3 µM | 31.4 µM | 18.8 µM | > 100 µM | 14.2 µM | 21 µM | 4.61 µM | 10.9 µM | 5.93 µM | 16.9 µM | 5.82 µM | 11 µM | 4.36 µM | 10.9 µM | 3.69 µM | 4 µM | 2.02 µM
7 | C=C1C(=O)OC2CC1C(O)C/C(C)=C/CC/C(C)=C/C(O)CC2C (stereo not given) | 9.16 µM | 8.39 µM | 5.81 µM | 4.95 µM | 25.2 µM | 7.61 µM | 11.5 µM | 8.66 µM | 6.55 µM | 12.2 µM | – | – | – | – | – | – | – | – | – | –
